# Article doi:10.1101/2023.02.27.530254, “Large library docking for cannabinoid-1 receptor agonists with reduced side effects” (bioRxiv, 2024)
# Legend:
# C56BL/6 mice [1] = test: Conditioned place preference; details: mouse, in vivo
# Method: To determine if ‘4042 was inherently rewarding or aversive we used the conditioned place paradigm as described. Briefly, mice were first habituated to the test apparatus, twice, and their preference for each chamber recorded for 30 minutes (Pretest). Two conditioning days followed in which mice received the vehicle control or the compound, and 30 minutes later restricted for 30 minutes in the preferred or non-preferred chamber, respectively. On day 5 (Test day), mice were allowed to roam freely between the 3 chambers of the apparatus and their preference for each chamber recorded for 30 minutes. To calculate the CPP score, we subtracted the time spent in each chamber of the box on the Pretest day from that of the Test day (CPP score = Test - Pretest).
# C56BL/6 mice [2] = test: Mechanical thresholds (von Frey), SNI model of neuropathic pain and naive mice; assay type: in vivo, mouse
# Method: (§1) Hindpaw mechanical thresholds were determined with von Frey filaments using the up-down method. […] Each training has three sessions of five min. each.
# Under isoflurane anesthesia, two of the three branches of the sciatic nerve were ligated and transected distally, leaving the sural nerve intact. Behavior was tested 7 to 14 days after injury.
# hCB1 [3] = target: T1, hCB1 (Homo sapiens, UniProt P21554); test: DiscoverX PathHunter β-arrestin-2 recruitment assay; assay type: cell-based
# T1 sequence (P21554 whole entry): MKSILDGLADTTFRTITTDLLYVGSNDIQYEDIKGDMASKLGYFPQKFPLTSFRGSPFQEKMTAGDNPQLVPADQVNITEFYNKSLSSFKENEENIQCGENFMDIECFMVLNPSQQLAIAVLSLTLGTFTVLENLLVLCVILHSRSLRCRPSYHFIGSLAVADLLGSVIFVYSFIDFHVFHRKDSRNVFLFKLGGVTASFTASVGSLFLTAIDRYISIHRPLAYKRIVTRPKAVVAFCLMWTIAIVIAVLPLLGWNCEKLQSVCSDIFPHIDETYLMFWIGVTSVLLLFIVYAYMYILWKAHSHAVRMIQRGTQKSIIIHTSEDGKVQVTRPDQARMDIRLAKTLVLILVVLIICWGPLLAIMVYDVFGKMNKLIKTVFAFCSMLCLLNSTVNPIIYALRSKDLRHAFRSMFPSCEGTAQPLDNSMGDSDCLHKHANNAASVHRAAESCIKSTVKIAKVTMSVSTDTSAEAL
# Method: PathHunter cell lines (CHO-K1 lineage expressing hCB1) were expanded from freezer stocks according to standard procedures. Cells were seeded in a total volume of 20 μL into white walled, 384-well microplates and incubated at 37°C for the appropriate time prior to testing. For agonist determination, cells were incubated with sample to induce response. Intermediate dilution of sample stocks was performed to generate 5X sample in assay buffer. 5 μL of 5X sample was added to cells and incubated at 37°C or room temperature for 90 to 180 minutes. Vehicle concentration was 1%. […] Microplates were read following signal generation with a PerkinElmer EnvisionTM instrument for chemiluminescent signal detection. Compound activity was analyzed using CBIS data analysis suite (ChemInnovation, CA).
# The data were analyzed in GraphPad Prism 9.1 using “dose–response-stimulation log(agonist) versus response (four parameters)” and data were presented as EC50 or pEC50 ± CIs of one independent experiment in duplicate.
# [4] = test system: melatonin-1 (MT1R), ghrelin (GHSR), Sigma1 and peripheral benzodiazepine receptors; test: PDSP off-target secondary validation (dose response) assays; assay type: cell-based; details: read-out: EC50 at off-target receptors (weak partial agonism)
# Method: (§2) Compound ‘4042 was tested at 10 μM for off-target activity against a panel of 320 non-olfactory GPCRs using PRESTO-Tango GPCRome arrestin-recruitment assay, as described. Receptors with at least three-fold increased relative luminescence over corresponding basal activity are potential positive hits, and were tested in dose response follow-up studies. Compound ‘4042 was further tested at 1 μM for off-target activity at a panel of 45 common GPCR and non-GPCR drug targets. Receptors with at least 50% displaced radioligand are potential positive hits and were tested in dose response follow-up studies. Screening was performed by the National Institutes of Mental Health Psychoactive Drug Screen Program (PDSP)[81].
# GPR55, GPR18, GPR119 = test: PRESTO-Tango GPCRome arrestin-recruitment screen; assay type: cell-based; details: tested at 10 μM
# Method: as §2
# C56BL/6 mice [5] = test: CFA-induced inflammatory pain model, Hargreaves test; assay type: in vivo, mouse; details: 0.2 mg/kg i.p.
# Method: as §1
# The CFA model of chronic inflammation was induced as described previously. Briefly, CFA (Sigma) was diluted 1:1 with saline and vortexed for 30 min. When fully suspended, we injected 20 μL of CFA into one hindpaw. Heat thresholds were measured before the injection (baseline) and 3 days after the injection using the Hargreaves test.
# hCB1 [6] = target: T1, hCB1; test: Cerep HTRF cAMP inhibition assay, hCB1 CHO-K1 cells; assay type: cell-based
# Method: The hCB1 CHO-K1 cells are suspended in HBSS buffer (Invitrogen) complemented with 20 mM HEPES (pH 7.4), then distributed in microplates at a density of 5.103 cells/well in the presence of either of the following: HBSS (basal control), the reference agonist at 30 nM (stimulated control) or the test compounds. […] Following 30 min incubation at 37°C, the cells are lysed, and the fluorescence acceptor (D2-labeled cAMP) and fluorescence donor (anti-cAMP antibody labeled with europium cryptate) are added. […] Each measurement was done in triplicate.
# C56BL/6 mice [7] = test: Formalin test; assay type: in vivo, mouse; details: 0.2 mg/kg i.p., 60 min observation
# Method: Thirty minutes after an i.p. injection of the compounds, mice received an intraplantar injection of a 20μl solution containing 2% formalin (Acros Organics) and we recorded the time mice spent licking/biting/guarding (nocifensive behaviors) the injected hindpaw over the next 60 min.
# hCB2 = hCB2 (Homo sapiens, UniProt P34972); test: Cerep cAMP assay; assay type: cell-based
# hCB2, sequence (P34972 whole entry): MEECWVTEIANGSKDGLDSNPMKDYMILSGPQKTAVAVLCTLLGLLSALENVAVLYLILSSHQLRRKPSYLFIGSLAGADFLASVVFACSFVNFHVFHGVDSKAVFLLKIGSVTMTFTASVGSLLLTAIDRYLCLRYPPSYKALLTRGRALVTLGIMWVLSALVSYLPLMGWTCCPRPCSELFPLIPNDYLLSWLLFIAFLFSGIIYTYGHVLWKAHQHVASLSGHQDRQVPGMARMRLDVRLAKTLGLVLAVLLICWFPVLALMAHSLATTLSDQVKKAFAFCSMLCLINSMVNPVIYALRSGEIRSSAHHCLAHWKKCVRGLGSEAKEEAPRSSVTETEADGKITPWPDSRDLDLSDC
# C56BL/6 mice [8] = test: Rotarod test of sedation; assay type: in vivo, mouse; details: for dose showing motor deficits: rotarod test
# Method: as §1
# hCB1 [9] = target: T1, hCB1; test: GloSensor cAMP accumulation assay; assay type: cell-based; design: host or cells: HEK293 (HEK293SL clone), transient; details: for Emax: read-out: hCB1 Glosensor cAMP Emax [95% CI]
# Method: The results were analysed using GraphPad Prism 9.1. Each experiment was performed in triplicate and functional IC50 values were determined from the mean of three independent experiments.
# CB1R = target: T2, CB1R (Homo sapiens, UniProt P21554, C107A/C139A/C149A/C238A/C355A/C382A/C386A/C415A/C431A/C449A/C98A/R336C); test: Bimane fluorescence of TM6-labeled minimal cysteine CB1R; assay type: biochemical; details: 10 μM ligand; apo 459 nm
# T2 construct: N-terminal FLAG tag and C-terminal histidine tag was added to human full-length CB1; FLAG (N); histidine tag (C); made in house; host or cells: Spodoptera frugiperda Sf9 (baculovirus)
# T2 sequence (P21554 whole entry C98A/C107A/C139A/C149A/C238A/R336C/C355A/C382A/C386A/C415A/C431A/C449A): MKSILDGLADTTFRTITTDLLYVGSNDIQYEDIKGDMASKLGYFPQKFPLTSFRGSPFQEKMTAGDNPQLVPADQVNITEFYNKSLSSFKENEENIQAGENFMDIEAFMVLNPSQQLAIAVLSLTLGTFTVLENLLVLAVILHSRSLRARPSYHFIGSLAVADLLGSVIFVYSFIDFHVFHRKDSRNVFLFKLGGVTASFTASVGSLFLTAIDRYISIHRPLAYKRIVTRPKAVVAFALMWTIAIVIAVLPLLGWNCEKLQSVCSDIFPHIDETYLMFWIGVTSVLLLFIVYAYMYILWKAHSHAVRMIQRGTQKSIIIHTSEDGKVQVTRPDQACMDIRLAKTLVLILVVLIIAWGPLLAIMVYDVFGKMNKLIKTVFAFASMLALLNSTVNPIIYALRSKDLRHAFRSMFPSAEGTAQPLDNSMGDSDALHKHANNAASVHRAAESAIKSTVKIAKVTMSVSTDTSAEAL
# Method: A minimal cysteine version of CB1R was generated[73] where all the cysteine residues (except C256 and C264) were mutated to alanine. […] Excess label was removed using size exclusion chromatography on a Superdex 200 10/300 Increase column in 20 mM HEPES pH 7.5, 100 mM NaCl and 0.01% MNG/0.001% CHS. Bimane-labeled CB1R at […] was incubated with ligands (10 μM) for one hour at room temperature. Fluorescence data was collected at room temperature in a 150 μL cuvette with a FluorEssence v3.8 software on a Fluorolog instrument (Horiba) in photon-counting mode. Bimane fluorescence was measured by excitation at 370 nm with excitation and emission bandwidth passes of 4 nm. The emission spectra were recorded from 410 to 510 nm with 1 nm increment and 0.1 s integration time.
compound,measurement,setting,value
"CCCCCCC(C)(C)c1ccc([C@@H]2C[C@H](O)CC[C@H]2CCCO)c(O)c1 [CP-55,940, reference compound]",conditioned place preference,C56BL/6 mice [1],may actually induce some aversion
COC(=O)C(C)(NC(=O)c1cc(C)n(-c2cccc(C(F)(F)F)c2)n1)c1cccs1 (stereo not drawn) [‘4042],effect on SNI mechanical allodynia,C56BL/6 mice [2]; 0.2 mg/kg i.p.,did not counter the mechanical allodynia
same,effect on mechanical thresholds of naïve (non-SNI) animals,C56BL/6 mice [2]; 0.2 mg/kg i.p.,did not alter the mechanical thresholds
same,effect on SNI mechanical allodynia,"C56BL/6 mice [2]; intrathecal, up to 100 μg/kg",modest anti-allodynic effect
same,EC50,hCB1 [3]; hCB1 DiscoverX ß-arrestin recruitment EC50 [95% CI],2.3 nM
same,EC50,hCB1 [3]; hCB1 DiscoverX ß-arrestin recruitment pEC50 [95% CI],2 nM
same,Emax,hCB1 [3]; read-out: hCB1 DiscoverX ß-arrestin recruitment Emax [95% CI],71%
same,EC50,[4],> 1000 nM
same,agonist activity at putative cannabinoid receptors,"GPR55, GPR18, GPR119",no agonist activity
same,conditioned place preference,C56BL/6 mice [1],does not induce preference
same,effect on paw withdrawal latency after CFA,C56BL/6 mice [5],analgesic
same,EC50,hCB1 [6],0.008 nM
same,Emax,"hCB1 [6]; CHO-K1, read-out: hCB1 Cerep cAMP Emax [95% CI]",96%
same,duration of phase 1 and phase 2 nocifensive behaviors,C56BL/6 mice [7],profoundly decreased
same,EC50,hCB2,0.0112 nM
same,Emax,hCB2; read-out: hCB2 Cerep cAMP Emax [95% CI],72%
same,dose showing motor deficits,C56BL/6 mice [8],1.0 mg/kg
same,EC50,hCB1 [9],0.0398 nM
same,Emax,hCB1 [9],91%
COC(=O)[C@@](C)(NC(=O)c1cc(C)n(-c2cccc(C(F)(F)F)c2)n1)c1cccs1 [‘1350],window between heat-based response and sedation,C56BL/6 mice [8]; rotarod,only five-fold
same,dose showing motor deficits,C56BL/6 mice [8],0.5 mg/kg
same,bimane spectrum λmax,CB1R,463 nm
COC(=O)C(NC(=O)c1cc(C)n(-c2cccc(C(F)(F)F)c2)n1)c1cccs1 (stereo not drawn) [‘60154],EC50,hCB1 [9],25.1 nM
same,Emax,hCB1 [9],82%
